# Measured values taken from paper PMC7998309, “Structural-Based Optimizations of the Marine-Originated Meridianin C as Glucose Uptake Agents by Inhibiting GSK-3β” (Marine Drugs, 2021).
# Tests used:
# [1] = target: T1, human GSK-3β (Homo sapiens, UniProt P49841); test: Inhibition of recombinant GSK-3β (Z-lyte assay); assay type: biochemical; settings: for IC50: human GSK-3β, top concentration 30 μM
# T1 construct: purchased Invitrogen
# Method: The activity of recombinant GSK-3β (Invitrogen) was measured in a Z-lyte assay of Invitrogen. In this assay, 100 nL of the compound solution in DMSO was transferred to a 384-well assay plate (the compound got threefold serial dilution, and the top concentration of the compound was 30 μM in the final reaction mixture). Then 5 μL of an enzyme (2 nM) and Ser/Thr 9 peptide (4 μM) mixture was added. After the enzyme and peptide pre-incubation with the compound for 30 min at 23 °C, 5 μL of ATP (12 μM) solution was added. The plate was incubated for 60 min at 23 °C. The reaction was stopped with 5 μL of development reagent. Fluorescence signals were detected with Envision (PerkinElmer, America) after 30 min of incubation, and the emission ratio (RFU 460 nm/RFU 535 nm) was used to analyze the data. The relative IC50 was reported using four-parameter logistic fit of IDBS Xlfit software. The IC50 values were calculated using the following equation: %Phosphorylation = 1 - (Emission Ratio × F100%) - C100%/(C0% - C100%) + [Emission Ratio × (F100% - F0%)] where
# Emission ratio = Coumarin/Fluorescein ratio of sample wells
# C100% = Average coumarin emission signal of the 100% phos. control
# C0% = Average coumarin emission signal of the 0% phos. control
# F100% = Average fluorescein emission signal of the 100% phos. control
# F0% = Average fluorescein emission signal of the 0% phos. control %Inhibition = {1 - %Phos Sample/%Phos 0%Inhibition Ctl}*100
# [2] = test system: HepG2 cells; test: Cell glucose uptake assay in HepG2 cells; assay type: cell-based, human; settings: relative glucose uptake at 5 µM in HepG2 cells, 3 h, compared with original glucose concentration of the medium; na = not active at 5 µM
# Method: (§1) The hepatocyte cell line HepG2 cells obtained from the Type Culture Collection of the Chinese Academy of Sciences (Shanghai, China) were maintained in high-glucose DMEM (Gibco) supplemented with 10% fetal bovine serum (FBS) and 1% penicillin-streptomycin in an atmosphere of 5% CO2 at 37 °C.
# Into a 96-well plate, 5 × 10^3 HepG2 cells per well were seeded. After 48 h, phenol red-free DMEM (Gibco) with 1% FBS was transferred to deprive the cells overnight, and then the tested compounds dissolved in a glucose-HEPES buffer (glucose concentration was 100 µg/mL) at a concentration of 5 µM were added to the culture system. Three hours later, the culture supernatants were collected and the glucose concentrations were detected using the Glucose (GO) Assay Kit (Sigma-Aldrich Corp.). Compared with the original glucose concentration of the buffer, the relative glucose uptake was calculated.
# [3] = MTT assay for cell viability (cytotoxicity); assay type: cell-based, human; settings: human; HepG2 cells, 48 h incubation, MTT
# Method: as §1
# (§2) Into a 96-well plate, 1 × 10^3 HepG2 cells per well were seeded. After 24 h, stock solutions of test compounds in DMSO were diluted in DMEM to ≤0.1% final DMSO concentration. Cells were treated with various concentrations (2.5–25 µM) of tested compounds for 48 h, and the MTT solution (0.5 mg/mL) was added. After 4 h of incubation at 37 °C for MTT-formazan formation, the supernatant was discarded and 100 µL of DMSO was applied into each well to dissolve formazan crystals. Absorbance at 490 nm was determined spectrophotometrically by using a microplate reader (Epoch, BioTek Instruments, Inc., Winooski, VT, USA).
# [4] = test system: HepG2 cells; test: MTT assay for cell viability (cytotoxicity); assay type: cell-based, human
# Method: as §1, §2
# T1 sequence (P49841 whole entry): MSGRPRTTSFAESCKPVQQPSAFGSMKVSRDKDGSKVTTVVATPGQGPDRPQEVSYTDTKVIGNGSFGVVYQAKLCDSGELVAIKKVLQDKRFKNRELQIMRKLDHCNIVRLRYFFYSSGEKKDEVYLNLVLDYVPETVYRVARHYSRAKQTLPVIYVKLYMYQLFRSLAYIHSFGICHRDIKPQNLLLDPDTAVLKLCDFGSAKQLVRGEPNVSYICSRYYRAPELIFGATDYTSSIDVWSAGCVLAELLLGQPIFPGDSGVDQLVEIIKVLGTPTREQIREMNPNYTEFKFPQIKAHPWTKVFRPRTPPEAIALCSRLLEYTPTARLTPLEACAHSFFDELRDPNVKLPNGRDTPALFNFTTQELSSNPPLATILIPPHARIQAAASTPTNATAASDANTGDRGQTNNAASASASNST
Structure (SMILES),inhibitory activity against GSK-3β at 30 µM (in words) [1],IC50 [1] [µM],Cell Glucose Uptake (%) [2] [%],melting point [°C],CC50 at 48 h [3] [µM],toxicity against HepG2 cells (in words) [4]
"Nc1ncc(-c2ccc(NC(=O)c3ccccc3Br)cc2)c(-c2c[nH]c3ccc(Br)cc23)n1 [A13, N-(4-(2-amino-4-(5-bromo-1H-indol-3-yl)pyrimidin-5-yl)phenyl)-2-bromobenzamide]",no apparent inhibitory activity,> 30,27,147.4 to 148.3,> 25,
"Nc1ncc(-c2ccc(NC(=O)c3cc(Cl)cc(Cl)c3)cc2)c(-c2c[nH]c3ccc(Br)cc23)n1 [A26, N-(4-(2-amino-4-(5-bromo-1H-indol-3-yl)pyrimidin-5-yl)phenyl)-3,5-dichlorobenzamide]",no apparent inhibitory activity,> 30,22,177.7 to 178.5,14.3,
"Fc1cccc(F)c1Nc1nccc(-c2c[nH]c3ccc(Br)cc23)n1 [B29, 4-(5-Bromo-1H-indol-3-yl)-N-(2,6-difluorophenyl) pyrimidin-2-amine]",,5.85,29,263.3 to 264.2,22.4,no significant toxicity
"Cc1cccc(C)c1Nc1nccc(-c2c[nH]c3ccc(Br)cc23)n1 [B30, 4-(5-Bromo-1H-indol-3-yl)-N-(2,6-dimethylphenyl) pyrimidin-2-amine]",,24.4,38,228.5 to 229.4,18.1,no significant toxicity
